One may read the IC50 as the midpoint of a concentration-inhibition curve. High values mean a need for much substance, low ones inhibition by little substance.

Experiment [1] has as its system PIK3CA mutation-positive Colo201 cells derived from human colorectal cancer. Description: Anti-tumor test 2 on mice tumor-bearing human colorectal cancer-derived Colo201 cells. Particulars: Colo201, Balb/c nude mice, final measuring day. The class given is in vivo. As to the method: (§1) 4 to 5 week old male Balb/c nude mice (CHARLES RIVER LABORATORIES JAPAN, INC.) were injected and implanted, under the skin on the back, with 3×10^6 PIK3CA mutation-positive and BRAF mutation-positive RKO cells, or 3×10^6 PIK3CA mutation-positive Colo201 cells, both derived from human colorectal cancer suspended to a mixed solution of PBS and Matrigel (registered trademark) in 1:1. Dividing into groups was performed when the tumor volume reached 100 to 250 mm^3, and administering of the test compounds was started. The test was performed on each of the 5 mice in the solvent group and the compound administered group. By oral administration, 6% cyclodextrin aqueous solution for the solvent group, and 6% cyclodextrin aqueous solution in which the test compound was mixed by the dosage shown in Table 4 for the compound administered group were administered. The administration was performed once a day for 11 days (RKO) or 21 days (Colo201), and the body weight and the tumor diameter were measured twice a week. For calculation of the tumor volume, the formula below was used.
(§2) [Tumor volume(mm^3)]=[major axis of tumor(mm)]×[minor axis of tumor(mm)]^2×0.5
(§3) The inhibition rate of tumor growth was calculated from the average value of the tumor volume according to the formula below.
(§4) Inhibition rate of tumor growth(%)=([…]average of tumor volume growth in each group/average of tumor volume growth in solvent group)×100

For experiment [2], the system named is DB cells derived from DLBCL. Description: Anti-tumor test 2 on mice tumor-bearing DLBCL-derived DB cells. Type of experiment: in vivo. Particulars: Balb/c nude mice, final measuring day. As to the method: (§5) 4 to 5 week old male Balb/c nude mice (CHARLES RIVER LABORATORIES JAPAN, INC.) were injected and implanted, under the skin on the back, with 3×10^6 DB cells or SU-DHL-4 cells both derived from DLBCL suspended to a mixed solution of PBS and Matrigel (registered trademark) in 1:1. Dividing into groups was performed when tumor volume reached 100 to 250 mm^3, and administering of the test compounds was started. The test was performed on each of the 5 mice in the solvent group and the compound administered group. By oral administration, 6% cyclodextrin aqueous solution for the solvent group, and 6% cyclodextrin aqueous solution in which the test compound was mixed by the dosage shown in Table 10 for the compound administered group were administered. The administration was performed once a day for 21 days by oral administration, and the body weight and the tumor diameter were measured twice a week. For calculation of the tumor volume, the formula below was used.
(§6) [Tumor volume(mm^3)]=[major axis of tumor(mm)]×[minor axis of tumor (mm)]^2×0.5
(§7) The inhibition rate of tumor growth and the rate of tumor regression were calculated from the average value of the tumor volume according to the formula below.
(§8) Inhibition rate of tumor growth(%)=(1−average of tumor volume growth in each group/average of tumor volume growth in solvent group)×100
(§9) Rate of tumor regression(%)=(1−average tumor volume in each group on measuring day/average tumor volume in each group when dividing groups)×100

The subject of experiment [3] is Human AML-derived KG-1 cells. Description: Anti-tumor test 2 on tumor-bearing mice transplanted with human AML-derived KG-1 cell. Type of experiment: in vivo. As to conditions: KG-1, Balb/c nude mice, final measuring day. The protocol:
as §5, with “5 weeks” for “5 week”, “3×10^6 KG-1” for “3×10^6 DB”, “cells” for “cells or SU-DHL-4 cells both derived from DLBCL”, “to 200” for “to 250”, “Table 6” for “Table 10”, “21 days,” for “21 days by oral administration,”
as §2, §7, §8, §9

Experiment [4] relates to Human AML-derived MV-4-11 cells. Description: Anti-tumor test 2 on tumor-bearing mice transplanted with human AML-derived MV-4-11 cell. Type of experiment: in vivo. Particulars: MV-4-11, NOD/SCID mice, 14 days after starting the administration. The protocol: 4 to 5 week old male NOD/SCID nude mice (CHARLES RIVER LABORATORIES JAPAN, INC.) were injected and implanted, under the skin on the back, with 5×10^6 MV-4-11 cells suspended to a mixed solution of PBS and Matrigel (registered trademark) in 1:1. Administering of the test compounds was started when tumor volume reached 100 to 250 mm^3. The test was performed on each of the 5 mice in the solvent group and the compound administered group. By oral administration, 6% cyclodextrin aqueous solution for the solvent group, and 6% cyclodextrin aqueous solution in which the test compound was mixed by the dosage shown in Table 8 for the compound administered group were administered. The administration was performed once a day by oral administration, and the body weight and the tumor diameter were measured twice a week. For calculation of the tumor volume, the formula below was used.
as §2, §7, §8, §9
The anti-tumor effect of Test Compounds A1, B1, C1, and D1 on the final measuring day (14 days after starting the administration) is shown in Table 8.

The test system of experiment [5] is SU-DHL-4 cells derived from DLBCL. Description: Anti-tumor test 2 on mice tumor-bearing DLBCL-derived SU-DHL-4 cells. The class given is in vivo. Particulars: SU-DHL-4, Balb/c nude mice, final measuring day. As to the method: as §5, §6, §7, §8, §9
In experiment [6] the test system is PIK3CA mutation-positive and BRAF mutation-positive RKO cells derived from human colorectal cancer. Description: Anti-tumor test 2 on mice tumor-bearing human colorectal cancer-derived RKO cells. Type of experiment: in vivo. As to conditions: Balb/c nude mice, final measuring day. As to the method:
as §1, §2, §3, §4

The target of experiment [7] is Human Mitochondrial Complex I (Homo sapiens, UniProt O75251+O75306+P03886). Description: Evaluation on effect of inhibiting human mitochondrial Complex I (mitochondria from MDA-MB-453 tumor). Type of experiment: biochemical. Particulars: mitochondria extracted from MDA-MB-453 tumor; concentration in terms of freebase.
Description: A solution of 9 times the tumor weight for extraction of mitochondria (0.275 M Sucrose, 2.2 mM EDTA, 11 mM Tris/HCl, pH 7.5, Complete-EDTA-free (Roche Diagnostics)) was added thereto, and then the tumor was crushed. The centrifugation was performed at 600×g for 10 minutes at 4° C., the supernatant was obtained, and then the centrifugation was performed at 14,000×g for 10 minutes at 4° C., and therefore pellets were obtained. The pellets were suspended in 10 mM Tris/HCl pH 7.5 of 5 times the weight of the extracted tumor, and therefore a suspension of human mitochondria was obtained.
Next, 25 or 50 μl of the suspension of human mitochondria was added per 1 ml of a liquid for measuring Complex I activity (25 mM potassium phosphate, pH 7.6, 0.35% Bovine Serum Albumin (BSA), 60 μM 2,6-dichlorophenol-indophenol, 70 μM decylubiquinone, 1 μM antimycin). After the solution was collected and added to a 96 or 384 well plate, a test compound was added to an arbitrary range from the final concentration of 10,000 nM to the final concentration of 0.3 nM. […] Furthermore, NADH was added to each well to the final concentration of 0.2 or 0.5 mM, and the change in absorbance at a wavelength of 600 nm was measured by using the SpectraMax (Molecular Devices, LLC.) set to 37° C. in advance. […]
[8] abbreviates: 1 mg/kg oral once a day for 21 days.
Setting [9] is: 1 mg/kg oral once a day for 11 days.
The mark [10] stands for this setting: 8 mg/kg oral once a day for 21 days.

Consider `CCOc1cnc(CN2CCC(c3ccc4cc(C(=O)N5CCN(Cc6ccc(C#N)cc6)CC5)n(C)c4c3)CC2)cn1` [Compound C1, 4-({4-[(6-{1-[(5-ethoxypyrazin-2-yl)methyl]piperidin-4-yl}-1-methyl-1H-indol-2-yl)carbonyl]piperazin-1-yl}methyl)benzonitrile], for which the “Inhibition rate Colo201” value in experiment [1] (setting [8]) was found to be 54%. Also, in experiment [2] (setting [8]), the “Regression rate DB” value was 69% regression. Besides, the “Rate of tumor regression” value in experiment [3] (setting [8]) was found to be 29% regression; in experiment [4] (1 mg/kg oral once a day) it was 77% regression. The “Inhibition rate SU-DHL-4” value in experiment [5] (setting [8]) was 100%. Further, in experiment [6] (setting [9]), the “Inhibition rate RKO” value came to 58%.
As for `COc1cnc(CN2CCC(c3ccc4c(c3)cc(C(=O)N3CCN(Cc5ccc(C#N)cc5)CC3)n4C)CC2)cn1` [Compound D1, 4-({4-[(5-{1-[(5-methoxypyrazin-2-yl)methyl]piperidin-4-yl}-1-methyl-1H-indol-2-yl)carbonyl]piperazin-1-yl}methyl)benzonitrile], the “Inhibition rate Colo201” value in experiment [1] (setting [8]) came out at 45%. Moreover, the “Inhibition rate DB” value in experiment [2] (setting [8]) is reported as 96% inhibition. For the same compound, the “Inhibition rate of tumor growth” value stood at 95% inhibition in experiment [3] (setting [8]) and 90% inhibition in experiment [4] (1 mg/kg oral once a day). In addition, in experiment [5] (setting [8]), the “Inhibition rate SU-DHL-4” value turned out to be 40%. In addition, it took 120 nM to reach half-maximal inhibition in experiment [7] (IC50). Also, in experiment [6] (setting [9]), the “Inhibition rate RKO” value is 13%.
Consider `COc1cnc(CN2CCC(c3ccc4[nH]c(C(=O)N5CCN(Cc6ccc(C(F)(F)F)cc6)CC5)nc4c3)CC2)cn1` [Compound B1, (5-{1-[(5-methoxypyrazin-2-yl)methyl]piperidin-4-yl}-1H-benzimidazol-2-yl){4-[4-(trifluoromethyl)benzyl]piperazin-1-yl}methanone], for which the “Inhibition rate Colo201” value in experiment [1] (setting [10]) amounted to 52%. Besides, the “Regression rate DB” value in experiment [2] (setting [10]) came to 92% regression. The “Rate of tumor regression” value in experiment [3] (setting [10]) was 31% regression; in experiment [4] (8 mg/kg oral once a day), 76% regression. Further, the “Inhibition rate SU-DHL-4” value in experiment [5] (setting [10]) turned out to be 87%. The “Inhibition rate RKO” value in experiment [6] (8 mg/kg oral once a day for 11 days) turned out to be 55%.

(Values after patent publication US20170360781A1, “PHARMACEUTICAL COMPOSITION COMPRISING BICYCLIC NITROGEN-CONTAINING AROMATIC HETEROCYCLIC AMIDE COMPOUND AS ACTIVE INGREDIENT” (Astellas Pharma Inc., priority 2014, published 2017).)
